Here are results for nine molecules from US20240148664A1, “LIPID AND COMPOSITION” (SOGO PHARMACEUTICAL CO., LTD., priority 2021, published 2024).

In data set [1] the test system is HT1080-EGFP (human/fibrosarcoma) cells. In words: Evaluation of knockdown effect (GFP assay), Cell experiment 1. In kind it is cell-based. Particulars: lipid nanoparticle containing siRNA against EGFP; fluorescence intensity with control cells without lipid nanoparticle set at 100. On the procedure:
A cell experiment was carried out by using HT1080-EGFP (human/fibrosarcoma) cells in order to evaluate lipid nanoparticles encapsulating an siRNA produced by using the lipids of the Examples and the Comparative Examples. These cells are cells provided with a green fluorescent protein gene (EGFP). The expression of EGFP can be easily confirmed by measuring the fluorescence intensity of a solution in which the cells are lysed, and thus by acting lipid nanoparticles encapsulating an siRNA that suppresses the expression of EGFP and observing any decrease in fluorescence intensity, the performance of the lipid nanoparticles used can be evaluated. Hereinafter, the procedure of the cell experiment will be shown.
(§1) A. Provision of Cells • (i) A liquid medium (DMEM/Ham's F12, FBS+, P/S+) (FBS: fetal bovine serum, P/S: antibiotic) was taken out from a refrigerator and temperature-controlled in an incubator set at 37° C. • (ii) A cryotube containing the cells was taken out from a −80° C. freezer and thawed at once in an incubator set at 37° C. • (iii) A stock solution of the thawed cells was collected in a capped test tube. • (iv) The tube containing the cells was washed with the liquid medium, and the wash was also collected in the test tube. • (v) The tube was subjected to a centrifuge to precipitate the cells. • (vi) The supernatant was aspirated, and the liquid medium was added and gently tapped to disperse the cells. • (vii) A small amount of the cells-dispersed liquid medium was collected, and the number of cells was observed and counted under a microscope. • (viii) The cells were seeded in a 24-well plate such that the number of cells was 2×10^4 cells per well. For the plate for an LDH assay described later, the cells were seeded in a 96-well plate such that the number of cells was 4×10^3 cells per well. • (ix) The 24-well plate or the 96-well plate was placed in an incubator, and the cells were cultured for 24 hours under conditions of 37° C. and 5% CO2.
The produced lipid nanoparticles were introduced into cells. • (i) Fetal bovine serum (FBS) was added to a liquid medium (FBS-, P/S-) temperature-controlled as in (i) of A above, in such a way as to reach 10%. • (ii) A 24-well plate was taken out from an incubator, and the liquid medium supernatant in the 24-well plate was aspirated and washed with phosphate buffered saline (PBS). • (iii) 400 μL of the liquid medium produced in (i) above was added to the washed 24-well plate. In addition, 100 μL of an LNP solution having an adjusted concentration was added. • (iv) The 24-well plate was placed in the incubator, and the cells were cultured (for 24 hours). • (v) After 24 hours, the liquid medium supernatant in the 24-well plate was aspirated, and 500 μL of a liquid medium containing 10% FBS (FBS+/P/S+) was added. • (vi) The 24-well plate was placed in the incubator, and the cells were cultured for 24 hours under conditions of 37° C. and 5% CO2.
By carrying out a GFP assay, the EGFP expression level in cells was measured to evaluate the effect of knocking down the green fluorescent protein gene (EGFP) by lipid nanoparticles. • (i) A 24-well plate was taken out from an incubator and washed with PBS. • (ii) A 1% octylglucoside solution to which a protease inhibitor was added was added in order to disrupt cells. Stirring with a pipette lysed the cells. • (iii) The cell lysate was transferred to an Eppendorf tube and subjected to a centrifuge. • (iv) 150 μL of the supernatant was collected and added to a plate for fluorescence measurement. • (v) The fluorescence intensity was measured under conditions of an excitation wavelength of 485 nm and a fluorescence wavelength of 535 nm with a plate reader (manufactured by TECAN, Infinite M200). The fluorescence intensity was calculated with the fluorescence intensity of control cells to which no lipid nanoparticle was added set at 100.

Data set [2] is described as follows: siRNA / mRNA encapsulation rate of lipid nanoparticle (RiboGreen). In kind it is physicochemical. Particulars: siRNA encapsulation rate of lipid nanoparticle. The protocol:
The siRNA encapsulation rate and the mRNA encapsulation rate of the lipid nanoparticle were obtained as follows. First, a surfactant (Sigma-Aldrich, Triton (registered trademark), X-100 (reducing type)) was added to the lipid nanoparticle-containing solution to disrupt the lipid nanoparticle to release the encapsulated siRNA or mRNA. The amounts of the lipid nanoparticle-containing solution and the surfactant were adjusted such that the siRNA or the mRNA was 2 pmol and the surfactant was 1% in 40 μL of the solution after adding the surfactant to the lipid nanoparticle-containing solution. Next, the RiboGreen reagent (reagent that reacts with siRNA to emit fluorescence, manufactured by Thermo Fisher Scientific, Quant-iT (registered trademark) RiboGreen (registered trademark) RNA Assay Kit) was added to the solution, and the fluorescence intensity was measured under conditions of an excitation wavelength of 480 nm and a fluorescence wavelength of 520 nm with a fluorescence intensity meter (manufactured by TECAN, Infinite M200). Specifically, 75 μL of the RiboGreen reagent diluted to 1/2000 was added to a diluted solution obtained by adding 65 μL of citrate buffer to 10 μL of the solution, and the fluorescence intensity was measured. This makes it possible to relatively measure the total amount of the siRNA or the total amount of the mRNA present in the solution.
Subsequently, the RiboGreen reagent was added to the lipid nanoparticle-containing solution without adding a surfactant, and the fluorescence intensity was measured in the same manner with a fluorescence intensity meter. By not adding a surfactant, it is possible to relatively measure the amount of the siRNA or the mRNA free in the solution without being encapsulated in the lipid nanoparticle.
Then, the fluorescence intensity obtained from the solution to which the surfactant was added obtained as described above was fluorescence intensity a, and the fluorescence intensity thus obtained from the solution to which no surfactant was added obtained as described above was fluorescence intensity b, and according to the expression (a−b)/a×100, the siRNA encapsulation rate (%) or the mRNA encapsulation rate (%) of the lipid nanoparticle was obtained. Each of fluorescence intensity a and fluorescence intensity b is a value obtained by subtracting a blank from the arithmetic average value of the results of three measurements for each solution. The blank was measured by carrying out the same operation on a well containing water containing no cell or lipid nanoparticle.

A short description of data set [3]: Measurement of particle size, polydispersity index and zeta potential of lipid nanoparticle (Zetasizer). The data set is classed as physicochemical. Particulars: lipid nanoparticle containing siRNA; for Particle size (nm) / PDI: main lipid/DPPC/cholesterol=45/10/45; for Particle size (nm): Z-average in ultrapure water; for PDI: ultrapure water; for Zeta potential (mV): pH 7.4 Tris-HCl. The protocol:
30 μL of each of the dialyzed lipid nanoparticle-containing solutions obtained by the above operation was measured out, 800 μL of ultrapure water was added to dilute the lipid nanoparticle-containing solution, and the diluted preparation solution was used to measure the particle size (nm) and the polydispersity index (PDI) by using a Zetasizer (manufactured by Malvern Panalytical, Zetasizer nano Ultra). The particle size was evaluated by Z-average in ultrapure water. The zeta potential was measured by using pH 7.4 Tris-HCl as a dilute solution.

The subject of data set [4] is HT1080-EGFP (human/fibrosarcoma) cells. In words: Evaluation of toxicity: LDH assay. The conditions noted are these: lipid nanoparticle containing siRNA; absorbance relative to control cells without lipid nanoparticle set at 1.00. In kind it is cell-based. The protocol: as §1
The introduction of lipid nanoparticles into cells for an LDH assay described later was carried out as follows. • (i) A 96-well plate was taken out from an incubator. • (ii) The liquid medium supernatant in the 96-well plate was aspirated and washed with phosphate buffered saline (PBS). • (iii) 160 μL of a liquid medium containing 10% FBS (FBS+/P/S+) was added to the washed 96-well plate. In addition, 40 μL of an LNP solution having an adjusted concentration was added. • (iv) The 96-well plate was placed in the incubator, and the cells were cultured for 24 hours under conditions of 37° C. and 5% CO2.
For Examples 1 to 9, a CCK-8 assay or an LDH assay was carried out to measure the metabolic activity of viable cells and relatively quantify the number of surviving cells to evaluate the toxicity of lipid nanoparticles.
An LDH assay was carried out by using a viable cell counting kit (DOJINDO LABORATORIES, Cytotoxicity LDH Assay Kit-WST) as follows. • (i) 20 μL of a lysis buffer was added to each of positive control wells and incubated at 37° C. for 30 minutes in an incubator. • (ii) 100 μL of the supernatant was taken from each well and transferred to a 96-well plate for measurement. • (iii) 100 μL of the reagent mixture attached to the kit was added to all the wells, and a color reaction was carried out for 30 minutes at room temperature with exclusion of light. • (iv) 50 μL of the stop solution reagent attached to the kit was added to all the wells. • (v) The 96-well plate was measured under conditions of a measurement wavelength of 490 nm and a target wavelength of 630 nm with a plate reader (manufactured by TECAN, Infinite M200) to calculate the absorbance. The absorbance was calculated with the absorbance of control cells to which no lipid nanoparticle was added set at 1.00. When the obtained value was 0.50 or less, a rating of double-circle (excellent) was given, when the obtained value was more than 0.50 and 1.0 or less, a rating of circle (good) was given, when the obtained value was more than 1.0 and less than 6.0, a rating of triangle (fair) was given, and when the obtained value was 6.0 or more, a rating of X-mark (poor) was given.

Regarding `CCCCCCCC/C=C\CCCCCCCCC(CCCCCCC/C=C\CCCCCCCC)OC(=O)[C@@H](N)CCCCN` (stereo partly drawn) [Comparative Example 4, (9Z,27Z)-hexatriaconta-9,27-dien-18-yl lysinate, reference compound], the “GFP Assay” value in data set [1] came out at 86. Moreover, the “Encapsulation rate (%)” value in data set [2] is listed as 99%. In data set [3], the “Particle size (nm)” value turned out to be 147.5 nm, the PDI was 0.063 and the “Zeta potential (mV)” value was determined as 26.5 mV.
As for `CCCCC/C=C\CCCC(CC/C=C\CCCCC)OC(=O)C(N)CCCCN` (stereo not drawn) [Comparative Example 5, (6Z,14Z)-icosa-6,14-dien-10-yl lysinate, reference compound], the “Encapsulation rate (%)” value in data set [2] is listed as 100%. In data set [3], the “Particle size (nm)” value is listed as 324.5 nm, the PDI stood at 0.731 and the “Zeta potential (mV)” value was 50.8 mV.
For `CC/C=C\CCC(CCCCCCC/C=C\CCCCCC)OC(=O)[C@@H](N)CCCCN` (stereo partly drawn) [Comparative Example 8, (3Z,15Z)-docosa-3,15-dien-7-yl lysinate, reference compound] the same measures were 100%, 233.1 nm, 0.187 and 29.7 mV.
As for `CCCCCCCC/C=C\CCCCCCCCC(CCCCCCC/C=C\CCCCCCCC)OC(=O)C(Cc1c[nH]cn1)NC(=O)C(N)CCCNC(=N)N` (stereo not drawn) [Example 3, (9Z,27Z)-hexatriaconta-9,27-dien-18-ylarginylhistidinate], the “LDH Assay” value in data set [4] is “◯ (when the obtained value was more than 0.50 and 1.0 or less, a rating of circle (good) was given)”. Besides, in data set [1], the “GFP Assay” value is 22.
In the case of `CCCCCCCC/C=C\CCCCCCCCC(CCCCCCC/C=C\CCCCCCCC)OC(=O)C(N)C(C)O` (stereo not drawn) [Comparative Example 1, (9Z,27Z)-hexatriaconta-9,27-dien-18-yl 2-amino-3-hydroxybutanoate, reference compound], the “Zeta potential (mV)” value in data set [3] is listed as 27.8 mV.
With `CCCCCCCC/C=C\CCCCCCCCCCCCC(CCCCCCCCCCC/C=C\CCCCCCCC)OC(=O)[C@@H](N)CCCCN` (stereo partly drawn) [Comparative Example 7, (9Z,35Z)-tetratetraconta-9,35-dien-22-yl lysinate, reference compound], in data set [2], the “Encapsulation rate (%)” value is on record as 99%. Besides, in data set [3], the “Particle size (nm)” value came out at 149.8 nm, the PDI is on record as 0.021 and the “Zeta potential (mV)” value was 21.0 mV.
In the case of `CC/C=C\CCC(CCCCCCCCCCC/C=C\CCCCCCCC)OC(=O)[C@@H](N)CCCCN` (stereo partly drawn) [Comparative Example 9, (3Z,19Z)-octacosa-3,19-dien-7-yl lysinate, reference compound], the “Encapsulation rate (%)” value in data set [2] amounted to 100%. For the same molecule, in data set [3], the “Particle size (nm)” value worked out at 759.4 nm, the PDI came out at 0.508 and the “Zeta potential (mV)” value came out at 32.7 mV.
Consider `CCCCC/C=C\C/C=C\CCCCCCCCC(CCCCCCC/C=C\C/C=C\CCCCC)OC(=O)C(NC(=O)C(N)CCCNC(=N)N)C(C)O` (stereo not drawn) [Example 10, (6Z,9Z,27Z,30Z)-hexatriaconta-6,9,27,30-tetraen-18-yl 2-(2-amino-5-guanidinopentanamido)-3-hydroxybutanoate], for which the “GFP Assay” value in data set [1] was determined as 11. Further, in data set [2], the “Encapsulation rate (%)” value came to 98%. For the same molecule, in data set [3], the “Particle size (nm)” value is on record as 103.6 nm, the PDI came out at 0.095 and the “Zeta potential (mV)” value is 36.8 mV.
Consider `CCCCCC/C=C\CCCCCCCCC(CCCCCCC/C=C\CCCCCC)OC(=O)C(N)CCCCN` (stereo not drawn) [Comparative Example 6, (7Z,25Z)-dotriaconta-7,25-dien-16-yl lysinate, reference compound], for which the “Encapsulation rate (%)” value in data set [2] turned out to be 99%. Moreover, in data set [3], the “Particle size (nm)” value amounted to 212.1 nm, the PDI worked out at 0.022 and the “Zeta potential (mV)” value came out at 27.5 mV.
